In experiment [1] the target is T1, cellular TDO2 in HEK293-TDO2 cells (Homo sapiens, UniProt P48775).
T1 construct: expressed in transfected cells; host or cells: HEK293 (ATCC), stably transfected
The experiment in a line: 293-TDO2 cell-based assay (Kyn colorimetric). The note with it: 48 hours of incubation. As for the experimental part:
The inhibitory activity of TDO2 inhibitors is determined by using a colorimetric reaction to measure Kyn generated from L-Trp (L-Tryptophon) oxidation by cellular TDO2 in HEK293-TDO2 cells stably transfected with a plasmid expression of Tryptophan 2,3-dioxygenase (for short, 293-TDO2).
HEK293 cells were obtained from the American Type Culture Collection and 293-TDO2 were recovered in 10% FBS-containing phenol red-free DMEM medium. Cells were plated onto a 96-well plate (100 μl/well) at 10000 cells per well and kept at 37° C. in a humidified incubator supplied with 5% CO2. 4 hours later, Compounds at different concentrations diluted in dimethylsulfoxide (DMSO) were added to plate. Cells were kept at 37° C. in a humidified incubator supplied with 5% CO2. After 48 hours of incubation, 100 μl supernatant from each well was removed to a new plate. The protein in the medium was precipitated with the addition of 8 μl 6N trichloroacetic acid. The plate was incubated at 60° C. for 30 minutes and then centrifugation at 2500 rpm for 10 minutes to remove sediments. 80 μl supernatants were carefully removed to a new clean plate and added with an equal volume of 2% 4-(Dimethylamino) benzaldehyde (D2004, sigma) dissolved in glacial acetic acid. The absorbance at 480 nm wavelength derived from Kyn was measured using a PHERAstar FS plate reader (BMG LABTECH). The IC50 for each compound was derived from fitting the dose-response data to the four-parameter logistic model by using XLfit software (IDBS).

The target of experiment [2] is T2, IDO1 (Homo sapiens, UniProt P14902). As to the kind of experiment: IDO1 enzymatic assay. The format is biochemical. Also noted: His tag (N); made in house; host or cells: E. coli. The note with it: read-out: Enzyme IC50 IDO1. A digest of the protocol:
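Recombinant IDO1 carrying an N-terminal His tag and purified from E. coli was used at 50 nM with test compound, 1.3 mM D-tryptophan, 5 mM L-ascorbic acid, methylene blue and 0.4 mg/mL catalase in 50 mM potassium phosphate pH 7.5 containing 0.1% BSA. This mixture was incubated at 24 °C for 1.5 hours, after which N'-formylkynurenine formation was followed continuously at 321 nm for 1 hour and activity was taken as the slope. IC50 was derived from the enzyme activity remaining as compound concentration increased.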

Experiment [3] concerns the target T2, IDO1. The experiment in a line: Hela cell-based IDO1 assay. The note with it: Hela cells. A digest of the protocol:
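Kynurenine was measured at 480 nm in trichloroacetic acid-deproteinised supernatant after adding 2% 4-(dimethylamino)benzaldehyde. This supernatant came from HeLa cells seeded at 8000 per well in 96-well plates in phenol red-free DMEM with 10% FBS and, from 4 hours after seeding, exposed for 48 hours at 37 °C, 5% CO2 to DMSO-diluted compound dilutions, IFN-γ (final 100 ng/mL) and 0.4 mM L-Trp. The resulting data were fitted with a four-parameter logistic model in XLfit. Potency was taken from those fits.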

Each structure is given as a SMILES string. A value given as a limit tells only on which side of the number the result lay.

The term EC50 denotes the concentration needed to bring the measured effect to its halfway point. A lower EC50 goes with an effect from little substance. In general, IC50 refers to the midpoint of a concentration-inhibition curve.

T1 sequence (P48775 whole entry): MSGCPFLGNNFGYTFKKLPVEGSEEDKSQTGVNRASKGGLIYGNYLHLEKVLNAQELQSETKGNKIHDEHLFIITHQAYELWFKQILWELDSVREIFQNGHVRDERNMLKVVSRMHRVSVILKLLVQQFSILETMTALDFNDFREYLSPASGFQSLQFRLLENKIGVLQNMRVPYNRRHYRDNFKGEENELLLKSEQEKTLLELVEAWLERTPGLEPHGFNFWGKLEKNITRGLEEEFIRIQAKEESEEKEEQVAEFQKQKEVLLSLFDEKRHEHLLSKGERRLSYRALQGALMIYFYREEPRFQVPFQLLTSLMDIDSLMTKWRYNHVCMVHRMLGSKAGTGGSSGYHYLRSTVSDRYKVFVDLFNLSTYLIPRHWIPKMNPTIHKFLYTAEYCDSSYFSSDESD
T2 sequence (P14902 whole entry): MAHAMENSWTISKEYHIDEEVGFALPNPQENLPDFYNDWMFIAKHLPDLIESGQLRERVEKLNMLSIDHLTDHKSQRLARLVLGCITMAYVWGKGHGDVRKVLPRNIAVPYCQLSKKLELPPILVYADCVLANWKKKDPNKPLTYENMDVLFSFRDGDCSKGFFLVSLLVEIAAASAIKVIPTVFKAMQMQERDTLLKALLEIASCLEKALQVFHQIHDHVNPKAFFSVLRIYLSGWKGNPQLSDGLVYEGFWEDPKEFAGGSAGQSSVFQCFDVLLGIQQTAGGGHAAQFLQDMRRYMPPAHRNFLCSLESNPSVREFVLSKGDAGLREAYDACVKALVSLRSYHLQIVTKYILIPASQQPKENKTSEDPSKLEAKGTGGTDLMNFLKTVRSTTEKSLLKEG

Take `COc1ccc(C2CCC(C(O)c3c(C4CC4)ccn4cncc34)CC2)cc1` (racemic) [Example C101, (7-cyclopropylimidazo[1,5-a]pyridin-8-yl)(4-(4-methoxyphenyl)cyclohexyl)methanol]: the EC50 is more than 10 µM in experiment [1] and 200 nM in experiment [3]. The IC50 in experiment [2] was 41 nM.

As to `OC(c1c(C2CC2)ccn2cncc12)C1CCC(c2ccc(Cl)cc2)CC1` (racemic) [Example C102, (4-(4-chlorophenyl)cyclohexyl)(7-cyclopropylimidazo[1,5-a]pyridin-8-yl)methanol], the values for the EC50 in experiment [1] and in experiment [3] were more than 10 µM and 261 nM, respectively. Further, in experiment [2], the IC50 was 100 nM.

For the compound `COCCOc1ccc(C2CCC(C(O)c3c(C4CC4)ccn4cncc34)CC2)cc1` (racemic) [Example C103, (7-cyclopropylimidazo[1,5-a]pyridin-8-yl)(4-(4-(2-methoxyethoxy)phenyl)cyclohexyl)methanol], the values for the EC50 in experiment [1] and in experiment [3] were more than 10 µM and 95 nM, respectively. In addition, in experiment [2], the IC50 was 62 nM.

In the case of `Oc1ccc(C2CCC(C(O)c3c(C4CC4)ccn4cncc34)CC2)cc1` (racemic) [Example C104], the EC50 in experiment [1] is more than 10 µM; in experiment [3], 82 nM. In experiment [2], the IC50 turned out to be 36 nM.

In the case of `OC(c1c(C2CC2)ccn2cncc12)C1CCC(c2ccc(OC(F)(F)F)cc2)CC1` (racemic) [Example C105], the EC50 in experiment [1] is more than 10 µM; in experiment [3], 2010 nM. The IC50 in experiment [2] came to 210 nM.

For the compound `N#Cc1ccc(C2CCC(C(O)c3c(C4CC4)ccn4cncc34)CC2)cc1` (racemic) [Example C106, 4-(4-((7-cyclopropylimidazo[1,5-a]pyridin-8-yl)(hydroxy)methyl)cyclohexyl)benzonitrile], the EC50 was more than 10 µM in experiment [1] and 429 nM in experiment [3]. The IC50 in experiment [2] was determined as 50 nM.

In the case of `OC(c1c(C2CC2)ccn2cncc12)C1CCC(c2ccc(F)cc2)CC1` (racemic) [Example C107, (7-cyclopropylimidazo[1,5-a]pyridin-8-yl)(4-(4-fluorophenyl)cyclohexyl)methanol], the EC50 is more than 10 µM in experiment [1] and 157 nM in experiment [3]. Also, the IC50 in experiment [2] worked out at 65 nM.

As for `OC(c1c(C2CC2)ccn2cncc12)C1CCC(c2ccccc2F)CC1` (racemic) [Example C108, (7-cyclopropylimidazo[1,5-a]pyridin-8-yl)(4-(2-fluorophenyl)cyclohexyl)methanol], the EC50 was more than 10 µM in experiment [1] and 320 nM in experiment [3]. Further, the IC50 in experiment [2] turned out to be 59 nM.

Take `OC(c1c(C2CC2)ccn2cncc12)C1CCC(c2cccc(F)c2)CC1` (racemic) [Example C109, (7-cyclopropylimidazo[1,5-a]pyridin-8-yl)(4-(3-fluorophenyl)cyclohexyl)methanol]: the EC50 in experiment [1] was more than 10 µM; in experiment [3], 100 nM. For the same compound, the IC50 in experiment [2] was found to be 87 nM.

Turning to `Cc1cccc(C2CCC(C(O)c3c(C4CC4)ccn4cncc34)CC2)c1` (racemic) [Example C111, (7-cyclopropylimidazo[1,5-a]pyridin-8-yl)(4-(m-tolyl)cyclohexyl)methanol], the figures for the EC50 in experiment [1] and in experiment [3] were more than 10 µM and 200 nM, respectively. For the same compound, the IC50 in experiment [2] is 82 nM.

With `O[C@@H](c1c(C2CC2)ccn2cncc12)[C@H]1CC[C@H](c2ccc(Cl)cc2)CC1` (single isomer, unassigned) [Example C102b], the EC50 in experiment [1] is more than 10 µM; in experiment [3], more than 10000 nM. Besides, in experiment [2], the IC50 was more than 10000 nM.

As to `COCCOc1ccc([C@H]2CC[C@H]([C@@H](O)c3c(C4CC4)ccn4cncc34)CC2)cc1` (single isomer, unassigned) [Example C103b], the figures for the EC50 in experiment [1] and in experiment [3] were more than 10 µM and 2980 nM, respectively. In experiment [2], the IC50 is 1200 nM.

As for `Oc1ccc([C@H]2CC[C@H](C(O)c3c(C4CC4)ccn4cncc34)CC2)cc1` (single isomer, unassigned) [Example C104b], the EC50 in experiment [1] is more than 10 µM; in experiment [3], more than 10000 nM. The IC50 in experiment [2] was determined as 5200 nM.

Turning to `O[C@@H](c1c(C2CC2)ccn2cncc12)[C@H]1CC[C@H](c2ccc(OC(F)(F)F)cc2)CC1` (single isomer, unassigned) [Example C105b], the EC50 was more than 10 µM in experiment [1] and more than 10000 nM in experiment [3]. The IC50 in experiment [2] was found to be 2000 nM.

Consider `N#Cc1ccc([C@H]2CC[C@H](C(O)c3c(C4CC4)ccn4cncc34)CC2)cc1` (single isomer, unassigned) [Example C106b], for which the EC50 in experiment [1] was more than 10 µM; in experiment [3], more than 10000 nM. The IC50 in experiment [2] was 2300 nM.

With `O[C@@H](c1c(C2CC2)ccn2cncc12)[C@H]1CC[C@H](c2ccc(F)cc2)CC1` (single isomer, unassigned) [Example C107b], the figures for the EC50 in experiment [1] and in experiment [3] were more than 10 µM and more than 10000 nM, respectively. For the same compound, the IC50 in experiment [2] was determined as 5100 nM.

Consider `O[C@@H](c1c(C2CC2)ccn2cncc12)[C@H]1CC[C@H](c2ccccc2F)CC1` (single isomer, unassigned) [Example C108b], for which the EC50 in experiment [1] is more than 10 µM; in experiment [3], more than 10000 nM. Further, the IC50 in experiment [2] came out at 7300 nM.

For the compound `O[C@@H](c1c(C2CC2)ccn2cncc12)[C@H]1CC[C@H](c2cccc(F)c2)CC1` (single isomer, unassigned) [Example C109b], the EC50 in experiment [1] is more than 10 µM; in experiment [3], more than 10000 nM. Moreover, in experiment [2], the IC50 was more than 10000 nM.

With `Cc1ccc([C@H]2CC[C@H]([C@@H](O)c3c(C4CC4)ccn4cncc34)CC2)cc1` (single isomer, unassigned) [Example C110b], the EC50 is more than 10 µM in experiment [1] and more than 10000 nM in experiment [3]. The IC50 in experiment [2] is more than 10000 nM.

As for `Cc1cccc([C@H]2CC[C@H]([C@@H](O)c3c(C4CC4)ccn4cncc34)CC2)c1` (single isomer, unassigned) [Example C111b], the EC50 was more than 10 µM in experiment [1] and more than 10000 nM in experiment [3]. The IC50 in experiment [2] was more than 10000 nM.

Take `Cc1ccccc1[C@H]1CC[C@H]([C@@H](O)c2c(C3CC3)ccn3cncc23)CC1` (single isomer, unassigned) [Example C112b]: the figures for the EC50 in experiment [1] and in experiment [3] were more than 10 µM and more than 10000 nM, respectively. For the same compound, the IC50 in experiment [2] is more than 10000 nM.

As to `COc1ccccc1[C@H]1CC[C@H]([C@@H](O)c2c(C3CC3)ccn3cncc23)CC1` (single isomer, unassigned) [Example C113b], the EC50 is more than 10 µM in experiment [1] and more than 10000 nM in experiment [3]. The IC50 in experiment [2] worked out at 8200 nM.

In the case of `COc1cccc([C@H]2CC[C@H]([C@@H](O)c3c(C4CC4)ccn4cncc34)CC2)c1` (single isomer, unassigned) [Example C114b], the EC50 in experiment [1] was more than 10 µM; in experiment [3] it was more than 10000 nM. Besides, the IC50 in experiment [2] was found to be 4700 nM.

With `O[C@@H](c1c(C2CC2)ccn2cncc12)[C@H]1CC[C@H](c2ccc(C(F)(F)F)cc2)CC1` (single isomer, unassigned) [Example C115b], the figures for the EC50 in experiment [1] and in experiment [3] were more than 10 µM and 9450 nM, respectively. Further, the IC50 in experiment [2] was more than 10000 nM.

Take `O[C@@H](c1c(C2CC2)ccn2cncc12)[C@H]1CC[C@H](c2ccccc2C(F)(F)F)CC1` (single isomer, unassigned) [Example C116b]: the half-maximal effective concentration (EC50) in experiment [1] is more than 10 µM; in experiment [3], more than 10000 nM. Also, the IC50 in experiment [2] worked out at 5400 nM.

On to `OC(c1c(C2CC2)ccc2cncn12)[C@H]1CC[C@H](c2cccc(F)c2F)CC1` (single isomer, unassigned) [Example D132b], for which the IC50 in experiment [2] came out at 7500 nM. In addition, the EC50 in experiment [3] was more than 10000 nM.

In the case of `O[C@H](c1c(C2CC2)ccc2cncn12)C1CCN(c2ccccc2)CC1` (single isomer, unassigned) [Example D170a], the figures for the EC50 in experiment [1] and in experiment [3] were more than 10 µM and 22 nM, respectively.

With `O[C@H](c1c(C2CC2)ccc2cncn12)C1CCN(c2ccc(Cl)c3ncccc23)CC1` (single isomer, unassigned) [Example D178a], the EC50 in experiment [1] is more than 10 µM; in experiment [3], 9.7 nM.

In turn, `OC(c1c(C2CC2)ccn2cncc12)C1CCC(c2ccc(F)c(F)c2)CC1` (centres unmarked) [Example C131, (7-cyclopropylimidazo[1,5-a]pyridin-8-yl)(4-(3,4-difluorophenyl)cyclohexyl)methanol] returned an EC50 in experiment [1] of more than 10 µM. Further, in experiment [2], the half-maximal inhibitory concentration (IC50) amounted to 110 nM.

The record behind these values is US10882856B2 (BeiGene, Ltd., priority 2017, dated 2021).
